# Experimental data published in the SangsterLogP compilation.
# Assay: method code SF-AS, from DOI: 10.1016/0165-022x(96)00008-5, PMID: 8844325
row,Structure (SMILES),logP
1,CC(C)(C)[N+]([O-])=Cc1ccc(C(=O)O)cc1,1.05
2,CC(C)(C)[N+]([O-])=Cc1ccc(C#N)cc1,0.52
3,CC1(C)CCC(C(F)(F)F)=[N+]1[O-],0.2
4,Cc1ccccc1C=[N+]([O-])C(C)(C)C,1.53
5,CC(C)(C)[N+]([O-])=Cc1ccc(Br)cc1,1.98
6,CC(C)(C)[N+]([O-])=Cc1ccc([N+](=O)[O-])cc1,1.39
7,CC1(C)C=[N+]([O-])C(C)(C)C1,-0.15
8,CC(C)(C)[N+]([O-])=Cc1ccccc1O,1.31
9,CC1(C)CCC(c2ccccc2)=[N+]1[O-],1.03
10,CC(C)(C)[N+]([O-])=Cc1cccc(O)c1,1
11,CC(C)(C)[N+]([O-])=Cc1ccc(Cl)cc1,2.39
12,COc1cccc(C=[N+]([O-])C(C)(C)C)c1,1.41
13,CC(C)(C)[N+]([O-])=Cc1ccccc1Br,2.52
14,CC(C)(C)[N+]([O-])=Cc1cc[n+]([O-])cc1,-0.82
15,CC(C)(C)[N+]([O-])=Cc1ccccc1[N+](=O)[O-],0.84
16,Cc1cccc(C=[N+]([O-])C(C)(C)C)c1,1.58
17,COc1cc(OC)c(C=[N+]([O-])C(C)(C)C)c(OC)c1,1.19
18,CC(C)(C)[N+]([O-])=Cc1cccc([N+](=O)[O-])c1,1.3
19,CC(C)(C)[N+]([O-])=Cc1ccncc1,0.4
20,CC(C)(C)[N+]([O-])=Cc1ccc(O)cc1,0.58
